# Laboratory results taken from patent US9012166B2, “Method for assaying histone methylation enzyme activity” (Kyushu Institute of Technology, priority 2010, dated 2015).
# Assays:
# Assay type in all cases: biochemical
# G9a (GST-mG9a) = biological target: T1, G9a (GST-mG9a) (Mus musculus, UniProt Q9Z148); test: Assay for measuring histone methyltransferase activity using peptidyl MCA, inhibitor evaluation with G9a; details: Example 9; Ac-histone H3 (1-9)-MCA; AMC fluorescence λex 390 nm/λem 460 nm; FIG. 19; read-out: IC50 for G9a
# T1 sequence (Q9Z148 1-1263): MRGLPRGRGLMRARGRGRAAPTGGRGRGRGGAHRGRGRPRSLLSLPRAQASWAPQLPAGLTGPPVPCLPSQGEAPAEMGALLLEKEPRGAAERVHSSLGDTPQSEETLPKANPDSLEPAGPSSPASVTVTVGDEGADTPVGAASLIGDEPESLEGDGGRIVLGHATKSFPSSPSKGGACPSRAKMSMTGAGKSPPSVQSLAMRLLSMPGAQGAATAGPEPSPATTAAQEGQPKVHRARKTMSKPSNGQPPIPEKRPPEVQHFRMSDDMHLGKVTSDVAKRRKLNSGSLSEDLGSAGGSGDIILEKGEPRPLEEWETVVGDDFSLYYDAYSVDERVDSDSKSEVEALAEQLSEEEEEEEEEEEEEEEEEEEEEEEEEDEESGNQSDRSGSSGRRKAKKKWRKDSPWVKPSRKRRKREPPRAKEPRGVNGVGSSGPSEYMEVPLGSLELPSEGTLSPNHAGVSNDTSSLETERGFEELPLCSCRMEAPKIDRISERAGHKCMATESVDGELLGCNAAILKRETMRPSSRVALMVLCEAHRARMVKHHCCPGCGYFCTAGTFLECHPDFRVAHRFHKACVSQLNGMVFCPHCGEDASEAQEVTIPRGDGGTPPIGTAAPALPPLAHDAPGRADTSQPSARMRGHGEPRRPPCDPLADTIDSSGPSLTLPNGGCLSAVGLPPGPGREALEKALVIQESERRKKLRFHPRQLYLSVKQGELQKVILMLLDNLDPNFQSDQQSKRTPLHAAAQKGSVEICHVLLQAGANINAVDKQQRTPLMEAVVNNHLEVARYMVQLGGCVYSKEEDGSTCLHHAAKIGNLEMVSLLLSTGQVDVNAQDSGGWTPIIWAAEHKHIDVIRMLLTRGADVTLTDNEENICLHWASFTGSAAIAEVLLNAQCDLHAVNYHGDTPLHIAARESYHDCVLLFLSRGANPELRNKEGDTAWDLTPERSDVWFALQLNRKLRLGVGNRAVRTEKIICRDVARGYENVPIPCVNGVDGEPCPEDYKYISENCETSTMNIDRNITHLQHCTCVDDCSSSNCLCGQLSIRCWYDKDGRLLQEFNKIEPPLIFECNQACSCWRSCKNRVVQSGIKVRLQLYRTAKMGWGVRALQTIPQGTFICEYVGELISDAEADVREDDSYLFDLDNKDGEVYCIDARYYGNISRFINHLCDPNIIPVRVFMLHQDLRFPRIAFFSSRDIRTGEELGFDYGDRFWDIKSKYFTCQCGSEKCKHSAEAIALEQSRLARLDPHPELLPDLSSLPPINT
# Description: When G9a was adopted as a histone methyltransferase, the following method was used. 10 μL of 2×HMT buffer (100 mM Tris-HCl (pH 8.5), 20 mM MgCl2, 40 mM KCl, 20 mM 2-mercaptoethanol, 500 mM sucrose), 0.4 μL of a BSA solution (150 μg/mL), 2 μL of GST-mG9a (0, 0.5 μg/μL), 1 μL of gliotoxin (any of various concentrations) and 2.6 μL of distilled water were mixed and then incubated at room temperature for 1 hour. Then, 2 μL of SAM (10 mM) and 2 μL of a peptidyl MCA (Ac-histone H3 (1-9)-MCA) solution (0.6 mM) were added thereto, which was then incubated at 37° C. for 1 hour. Thereafter, 30 μL of a trypsin solution (20 mg/mL) was added thereto, followed by incubation at 37° C. for 15 minutes. Then, the fluorescence intensity of the solution was measured at an excitation wavelength (λex) of 390 nm and a fluorescence wavelength (λem) of 460 nm. The final concentration of GST-mG9a during the measurement of fluorescence intensity was 0.05 μg/μL. The results of the assay for measuring histone methyltransferase activity are shown in the middle panel of FIG. 18.
# The rate of the inhibition of methylation by gliotoxin was calculated from the results in the left panel and the middle panel of FIG. 18. Specifically, the value (%) was calculated which was obtained by dividing “a value obtained by subtracting “the fluorescence intensity of AMC when peptidase was added but gliotoxin was not added” from “the fluorescence intensity of AMC when both peptidase and gliotoxin were added”” by “a value obtained by subtracting “the fluorescence intensity of AMC when peptidase was added but gliotoxin was not added” from “the fluorescence intensity of AMC when no peptidase or gliotoxin was added”” and multiplying the resultant value by 100. The rate (%) of the inhibition of methylation by gliotoxin is shown in the right panel of FIG. 18.
# Specifically, the assay for measuring histone methyltransferase activity was carried out by the same method as the method using G9a […] in Example 8 except for using S-Adenosyl-L-homocysteine (SAH) in place of gliotoxin. SAH is a by-product of the methylation reaction and is known to inhibit histone methyltransferase in a negative feedback manner. […] The rate (%) of the inhibition of methylation by SAH was calculated from the results in the left panel of FIG. 19. The results are shown in the right panel of FIG. 19.
# When G9a was adopted as a histone methyltransferase, the following method was used. […] Then, the fluorescence intensity of the solution was measured at an excitation wavelength (λex) of 330 nm and a fluorescence wavelength (λem) of 380 nm or at an excitation wavelength (λex) of 390 nm and a fluorescence wavelength (λem) of 460 nm. The final concentration of GST-mG9a during the measurement of fluorescence intensity was 0 μg/μL or 0.05 μg/μL.
# trypsin [1] = test: Mixing assay of substrate compound with peptidase (trypsin), AMC fluorescence; details: 1,000 μM BocLys(Me)nMCA and trypsin; λex 390 nm, λem 460 nm
# Description: (§1) Distilled water was added to 10 μL of 2×HMT buffer (100 mM Tris-HCl (pH 8.5), 20 mM MgCl2, 40 mM KCl, 20 mM 2-mercaptoethanol, 500 mM sucrose) and 1 μL of a BocLysMCA solution to adjust the total volume to 20 μL. To the resultant solution was added 30 μL of a peptidase solution (20 mg/mL trypsin or 20 mAU/mL lysyl endopeptidase), which was then mixed and incubated at 37° C. for 15 minutes. Then, the fluorescence intensity of the solution was measured at an excitation wavelength (λex) of 390 nm and a fluorescence wavelength (λem) of 460 nm. The wavelength is a wavelength for detecting AMC (7-amino-4-methylcoumarin) released by the cleavage of the amide bond between Lys and MCA of BocLysMCA. The fluorescence intensity of AMC was similarly measured by performing a mixing assay by the same method as the above method except for using monomethylated BocLysMCA (i.e., “BocLys(Me)MCA”), dimethylated BocLysMCA (i.e., “BocLys(Me)2MCA”), or trimethylated BocLysMCA (i.e., “BocLys(Me)3MCA”) in place of BocLysMCA.
# lysyl endopeptidase [2] = biological target: T2, lysyl endopeptidase (Achromobacter lyticus, UniProt P15636); test: LC/MS analysis of reaction between substrate compound and lysyl endopeptidase; details: Example 3; 37° C., 15 minutes
# Description: (§2) Distilled water was added to 10 μL of 2×HMT buffer (100 mM Tris-HCl (pH 8.5), 20 mM MgCl2, 40 mM KCl, 20 mM 2-mercaptoethanol, 500 mM sucrose) and 1 μL of a BocLysMCA solution to adjust the total volume to 20 μL. To the resultant solution was added 30 μL of a peptidase solution (20 mg/mL trypsin or 20 mAU/mL lysyl endopeptidase), which was then mixed and incubated at 37° C. for 15 minutes. Then, the solution was applied to a liquid chromatograph mass spectrometer (LC/MS) for analysis. Analysis was performed by the same method as that for the above analysis except for using monomethylated BocLysMCA (i.e., “BocLys(Me)MCA”), dimethylated BocLysMCA (i.e., “BocLys(Me)2MCA”), or trimethylated BocLysMCA (i.e., “BocLys(Me)3MCA”) in place of BocLysMCA. Analysis was also carried out by the same method except for using, in place of the above-described peptidase solution, an equal volume of distilled water.
# trypsin [3] = test: LC/MS analysis of reaction between substrate compound and trypsin; details: Example 3; 37° C., 15 minutes
# Description: as §2
# lysyl endopeptidase [4] = biological target: T2, lysyl endopeptidase; test: Mixing assay of substrate compound with peptidase (lysyl endopeptidase), AMC fluorescence; details: 1,000 μM BocLys(Me)nMCA and lysyl endopeptidase; λex 390 nm, λem 460 nm
# Description: as §1
# T2 sequence (P15636 206-473 limits assumed, species assumed): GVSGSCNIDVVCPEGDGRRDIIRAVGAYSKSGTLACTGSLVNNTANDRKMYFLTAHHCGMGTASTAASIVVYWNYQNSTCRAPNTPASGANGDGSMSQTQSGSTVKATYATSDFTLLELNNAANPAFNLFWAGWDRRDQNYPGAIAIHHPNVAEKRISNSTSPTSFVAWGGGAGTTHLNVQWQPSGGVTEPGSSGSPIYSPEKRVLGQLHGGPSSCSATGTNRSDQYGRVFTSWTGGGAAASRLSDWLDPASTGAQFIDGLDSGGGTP
IC50 (G9a (GST-mG9a)) [µM],Structure (SMILES),fluorescence intensity of AMC when the fluorescence intensity for BocLysMCA was set to 100% (trypsin [1]) [%],hydrolysis by lysyl endopeptidase (LC/MS peaks) (lysyl endopeptidase [2]),hydrolysis by trypsin (LC/MS peaks) (trypsin [3]),fluorescence intensity of AMC when the fluorescence intensity for BocLysMCA was set to 100% (lysyl endopeptidase [4]) [%]
490,"Nc1ncnc2c1ncn2[C@@H]1O[C@H](CSCC[C@H](N)C(=O)O)[C@@H](O)[C@H]1O [SAH, S-Adenosyl-L-homocysteine]",–,–,–,–
–,"Cc1cc(=O)oc2cc(NC(=O)[C@H](CCCCN(C)C)NC(=O)OC(C)(C)C)ccc12 [BocLys(Me)2MCA, dimethylated BocLysMCA]",0.12,almost no occurrence of hydrolysis,almost no occurrence of hydrolysis,0.053
–,"Cc1cc(=O)oc2cc(NC(=O)[C@H](CCCC[N+](C)(C)C)NC(=O)OC(C)(C)C)ccc12 [BocLys(Me)3MCA, trimethylated BocLysMCA]",0.24,almost no occurrence of hydrolysis,almost no occurrence of hydrolysis,0.25
–,"CNCCCC[C@H](NC(=O)OC(C)(C)C)C(=O)Nc1ccc2c(C)cc(=O)oc2c1 [BocLys(Me)MCA, monomethylated BocLysMCA]",2.7,almost no occurrence of hydrolysis,almost no occurrence of hydrolysis,0.096
